Experimental data reported in patent publication US11807644B2 (PMV Pharmaceuticals, Inc., priority 2020, dated 2023).

These molecules were tested against T1, recombinant His-tag Y220C p53 DBD protein (Homo sapiens, UniProt P04637, Y220C) (assay: In vitro DNA binding activity assay (TR-FRET): binding of His-tag Y220C p53 DBD to biotin-labeled consensus DNA). Conditions: SC150 = concentration to increase DNA binding by […], His-tag Y220C p53 DBD, biotin-labeled consensus DNA.
T1 construct: recombinant His-tag Y220C p53 DBD protein (amino acids #˜94-312)
Format: biochemical

Row | SMILES | Y220C SC150 (μM)
1 | CN1CC[C@@H](Nc2cccc3c2cc(-c2noc(CNC(=O)c4ccn(C(C)(C)C5CC5)c4)n2)n3CC(F)(F)F)[C@@H](F)C1 [Compound 423B, 1-(2-cyclopropylpropan-2-yl)-N-{[3-(4-{[(3S,4R)-3-fluoro-1-methylpiperidin-4-yl]amino}-1-(2,2,2-trifluoroethyl)-1H-indol-2-yl)-1,2,4-oxadiazol-5-yl]methyl}-1H-pyrrole-3-carboxamide] | * (* = 0 μM ≤ SC150 < 0.1 μM)
2 | COCC1(n2ccc(C(=O)NCc3nc(-c4cc5c(N[C@@H]6CCN(C)C[C@@H]6F)cccc5n4CC(F)(F)F)no3)c2)CC1 [Compound 426B, N-{[3-(4-{[(3S,4R)-3-fluoro-1-methylpiperidin-4-yl]amino}-1-(2,2,2-trifluoroethyl)-1H-indol-2-yl)-1,2,4-oxadiazol-5-yl]methyl}-1-[1-(methoxymethyl)cyclopropyl]-1H-pyrrole-3-carboxamide] | * (* = 0 μM ≤ SC150 < 0.1 μM)
3 | CCC(C)(C)n1ccc(C(=O)NCc2nc(-c3cc4c(N[C@@H]5CCN(C)C[C@@H]5F)cccc4n3CC(F)(F)F)no2)c1 [Compound 427B, N-{[3-(4-{[(3S,4R)-3-fluoro-1-methylpiperidin-4-yl]amino}-1-(2,2,2-trifluoroethyl)-1H-indol-2-yl)-1,2,4-oxadiazol-5-yl]methyl}-1-(2-methylbutan-2-yl)-1H-pyrrole-3-carboxamide] | * (* = 0 μM ≤ SC150 < 0.1 μM)
4 | CN1CC[C@@H](Nc2cccc3c2cc(-c2noc(CNC(=O)c4ccn(C5(C)CC5)c4)n2)n3CC(F)(F)F)[C@@H](F)C1 [Compound 428B, N-{[3-(4-{[(3S,4R)-3-fluoro-1-methylpiperidin-4-yl]amino}-1-(2,2,2-trifluoroethyl)-1H-indol-2-yl)-1,2,4-oxadiazol-5-yl]methyl}-1-(1-methylcyclopropyl)-1H-pyrrole-3-carboxamide] | * (* = 0 μM ≤ SC150 < 0.1 μM)
5 | CN1CC[C@@H](Nc2cccc3c2cc(-c2noc(CNC(=O)c4cn(C5(C)CCOCC5)cn4)n2)n3CC(F)(F)F)[C@@H](F)C1 [Compound 433B, N-{[3-(4-{[(3S,4R)-3-fluoro-1-methylpiperidin-4-yl]amino}-1-(2,2,2-trifluoroethyl)-1H-indol-2-yl)-1,2,4-oxadiazol-5-yl]methyl}-1-(4-methyloxan-4-yl)-1H-imidazole-4-carboxamide] | * (* = 0 μM ≤ SC150 < 0.1 μM)
6 | CN1CC[C@@H](Nc2cccc3c2cc(-c2noc(CNC(=O)c4csc(N5CCOCC5)c4)n2)n3CC(F)(F)F)[C@@H](F)C1 [Compound 436B, N-{[3-(4-{[(3S,4R)-3-fluoro-1-methylpiperidin-4-yl]amino}-1-(2,2,2-trifluoroethyl)-1H-indol-2-yl)-1,2,4-oxadiazol-5-yl]methyl}-5-(morpholin-4-yl)thiophene-3-carboxamide] | * (* = 0 μM ≤ SC150 < 0.1 μM)
7 | CN1CC[C@@H](Nc2cccc3c2cc(-c2noc(CNC(=O)c4csc(C(C)(C)C)n4)n2)n3CC(F)(F)F)[C@@H](F)C1 [Compound 438B, 2-tert-butyl-N-{[3-(4-{[(3S,4R)-3-fluoro-1-methylpiperidin-4-yl]amino}-1-(2,2,2-trifluoroethyl)-1H-indol-2-yl)-1,2,4-oxadiazol-5-yl]methyl}-1,3-thiazole-4-carboxamide] | * (* = 0 μM ≤ SC150 < 0.1 μM)
8 | CN1CC[C@@H](Nc2cccc3c2cc(-c2noc(CNC(=O)c4coc(C(C)(C)C)n4)n2)n3CC(F)(F)F)[C@@H](F)C1 [Compound 440B, 2-tert-butyl-N-{[3-(4-{[(3S,4R)-3-fluoro-1-methylpiperidin-4-yl]amino}-1-(2,2,2-trifluoroethyl)-1H-indol-2-yl)-1,2,4-oxadiazol-5-yl]methyl}-1,3-oxazole-4-carboxamide] | * (* = 0 μM ≤ SC150 < 0.1 μM)
9 | CN1CC[C@@H](Nc2cccc3c2cc(-c2noc(CNC(=O)c4ccn(C(C)(C)CO)c4)n2)n3CC(F)(F)F)[C@@H](F)C1 [Compound 441B] | * (* = 0 μM ≤ SC150 < 0.1 μM)
10 | CN1CC[C@@H](Nc2cccc3c2cc(-c2noc(CNC(=O)c4ccc(C(C)(C)C#N)s4)n2)n3CC(F)(F)F)[C@@H](F)C1 [Compound 442B, 5-(1-cyano-1-methylethyl)-N-{[3-(4-{[(3S,4R)-3-fluoro-1-methylpiperidin-4-yl]amino}-1-(2,2,2-trifluoroethyl)-1H-indol-2-yl)-1,2,4-oxadiazol-5-yl]methyl}thiophene-2-carboxamide] | * (* = 0 μM ≤ SC150 < 0.1 μM)

The next lines start with the values.

Row | Y220C SC150 (μM) | SMILES
11 | * (* = 0 μM ≤ SC150 < 0.1 μM) | CN1CC[C@@H](Nc2cccc3c2cc(-c2noc(CNC(=O)c4ccc(C(C)(C)O)s4)n2)n3CC(F)(F)F)[C@@H](F)C1 [Compound 424B, N-[[3-[4-[[(3S,4R)-3-fluoro-1-methyl-4-piperidyl]amino]-1-(2,2,2-trifluoroethyl)indol-2-yl]-1,2,4-oxadiazol-5-yl]methyl]-5-(1-hydroxy-1-methyl-ethyl)thiophene-2-carboxamide]
12 | * (* = 0 μM ≤ SC150 < 0.1 μM) | CN1CC[C@@H](Nc2cccc3c2cc(-c2noc(CNC(=O)c4csc(C(C)(C)O)c4)n2)n3CC(F)(F)F)[C@@H](F)C1 [Compound 425B, N-{[3-(4-{[(3S,4R)-3-fluoro-1-methylpiperidin-4-yl]amino}-1-(2,2,2-trifluoroethyl)-1H-indol-2-yl)-1,2,4-oxadiazol-5-yl]methyl}-5-(2-hydroxypropan-2-yl)thiophene-3-carboxamide]
13 | * (* = 0 μM ≤ SC150 < 0.1 μM) | CN1CC[C@@H](Nc2cccc3c2cc(-c2noc(CNC(=O)c4csc(N)c4)n2)n3CC(F)(F)F)[C@@H](F)C1 [Compound 429B, 5-amino-N-{[3-(4-{[(3S,4R)-3-fluoro-1-methylpiperidin-4-yl]amino}-1-(2,2,2-trifluoroethyl)-1H-indol-2-yl)-1,2,4-oxadiazol-5-yl]methyl}thiophene-3-carboxamide]
14 | * (* = 0 μM ≤ SC150 < 0.1 μM) | CC(C)c1nc(C(=O)NCc2nc(-c3cc4c(N[C@@H]5CCN(C)C[C@@H]5F)cccc4n3CC(F)(F)F)no2)co1 [Compound 430B, N-{[3-(4-{[(3S,4R)-3-fluoro-1-methylpiperidin-4-yl]amino}-1-(2,2,2-trifluoroethyl)-1H-indol-2-yl)-1,2,4-oxadiazol-5-yl]methyl}-2-(propan-2-yl)-1,3-oxazole-4-carboxamide]
15 | * (* = 0 μM ≤ SC150 < 0.1 μM) | CC(C)c1ncc(C(=O)NCc2nc(-c3cc4c(N[C@@H]5CCN(C)C[C@@H]5F)cccc4n3CC(F)(F)F)no2)s1 [Compound 431B, N-{[3-(4-{[(3S,4R)-3-fluoro-1-methylpiperidin-4-yl]amino}-1-(2,2,2-trifluoroethyl)-1H-indol-2-yl)-1,2,4-oxadiazol-5-yl]methyl}-2-(propan-2-yl)-1,3-thiazole-5-carboxamide]
16 | * (* = 0 μM ≤ SC150 < 0.1 μM) | CN1CC[C@@H](Nc2cccc3c2cc(-c2noc(CNC(=O)c4cnc(N(C)C)s4)n2)n3CC(F)(F)F)[C@@H](F)C1 [Compound 432B, 2-(dimethylamino)-N-{[3-(4-{[(3S,4R)-3-fluoro-1-methylpiperidin-4-yl]amino}-1-(2,2,2-trifluoroethyl)-1H-indol-2-yl)-1,2,4-oxadiazol-5-yl]methyl)-1,3-thiazole-5-carboxamide]
17 | * (* = 0 μM ≤ SC150 < 0.1 μM) | CC(C)c1nc(C(=O)NCc2nc(-c3cc4c(N[C@@H]5CCN(C)C[C@@H]5F)cccc4n3CC(F)(F)F)no2)cs1 [Compound 434B, N-{[3-(4-{[(3S,4R)-3-fluoro-1-methylpiperidin-4-yl]amino}-1-(2,2,2-trifluoroethyl)-1H-indol-2-yl)-1,2,4-oxadiazol-5-yl]methyl}-2-(propan-2-yl)-1,3-thiazole-4-carboxamide]
18 | * (* = 0 μM ≤ SC150 < 0.1 μM) | CN1CC[C@@H](Nc2cccc3c2cc(-c2noc(CNC(=O)c4csc(N(C)C)n4)n2)n3CC(F)(F)F)[C@@H](F)C1 [Compound 435B, 2-(dimethylamino)-N-{[3-(4-{[(3S,4R)-3-fluoro-1-methylpiperidin-4-yl]amino}-1-(2,2,2-trifluoroethyl)-1H-indol-2-yl)-1,2,4-oxadiazol-5-yl]methyl}-1,3-thiazole-4-carboxamide]
19 | * (* = 0 μM ≤ SC150 < 0.1 μM) | CN1CC[C@@H](Nc2cccc3c2cc(-c2noc(CNC(=O)c4cnc(C(C)(C)C)s4)n2)n3CC(F)(F)F)[C@@H](F)C1 [Compound 437B, 2-tert-butyl-N-{[3-(4-{[(3S,4R)-3-fluoro-1-methylpiperidin-4-yl]amino}-1-(2,2,2-trifluoroethyl)-1H-indol-2-yl)-1,2,4-oxadiazol-5-yl]methyl}-1,3-thiazole-5-carboxamide]
20 | * (* = 0 μM ≤ SC150 < 0.1 μM) | COC(C)(C)c1ccc(C(=O)NCc2nc(-c3cc4c(N[C@@H]5CCN(C)C[C@@H]5F)cccc4n3CC(F)(F)F)no2)s1 [Compound 439B, N-{[3-(4-{[(3S,4R)-3-fluoro-1-methylpiperidin-4-yl]amino}-1-(2,2,2-trifluoroethyl)-1H-indol-2-yl)-1,2,4-oxadiazol-5-yl]methyl}-5-(2-methoxypropan-2-yl)thiophene-2-carboxamide]
21 | * (* = 0 μM ≤ SC150 < 0.1 μM) | CN1CC[C@@H](Nc2cccc3c2cc(-c2noc(CNC(=O)c4cnc(C(C)(C)C)o4)n2)n3CC(F)(F)F)[C@@H](F)C1 [Compound 443B, 2-tert-butyl-N-{[3-(4-{[(3S,4R)-3-fluoro-1-methylpiperidin-4-yl]amino}-1-(2,2,2-trifluoroethyl)-1H-indol-2-yl)-1,2,4-oxadiazol-5-yl]methyl}-1,3-oxazole-5-carboxamide]
22 | * (* = 0 μM ≤ SC150 < 0.1 μM) | CC(C)c1ccc(C(=O)NCc2nc(-c3cc4c(N[C@@H]5CCN(C)C[C@@H]5F)cccc4n3CC(F)(F)F)no2)s1 [Compound 444B, N-{[3-(4-{[(3S,4R)-3-fluoro-1-methylpiperidin-4-yl]amino}-1-(2,2,2-trifluoroethyl)-1H-indol-2-yl)-1,2,4-oxadiazol-5-yl]methyl}-5-(propan-2-yl)thiophene-2-carboxamide]
